Data on 35 compounds can be found in patent US20240000746A1, “New Cooling Agents and Preparations Containing Them” (Symrise AG, priority 2020, published 2024).

“And” between values parts separate entries of the source, which are not always exact repeats. Equal values may be shown once.

The target in one test is T1, human TRPM8 receptor (Homo sapiens, UniProt Q7Z2W7).
T1 construct: expressed in transfected cells
T1 sequence (Q7Z2W7 whole entry): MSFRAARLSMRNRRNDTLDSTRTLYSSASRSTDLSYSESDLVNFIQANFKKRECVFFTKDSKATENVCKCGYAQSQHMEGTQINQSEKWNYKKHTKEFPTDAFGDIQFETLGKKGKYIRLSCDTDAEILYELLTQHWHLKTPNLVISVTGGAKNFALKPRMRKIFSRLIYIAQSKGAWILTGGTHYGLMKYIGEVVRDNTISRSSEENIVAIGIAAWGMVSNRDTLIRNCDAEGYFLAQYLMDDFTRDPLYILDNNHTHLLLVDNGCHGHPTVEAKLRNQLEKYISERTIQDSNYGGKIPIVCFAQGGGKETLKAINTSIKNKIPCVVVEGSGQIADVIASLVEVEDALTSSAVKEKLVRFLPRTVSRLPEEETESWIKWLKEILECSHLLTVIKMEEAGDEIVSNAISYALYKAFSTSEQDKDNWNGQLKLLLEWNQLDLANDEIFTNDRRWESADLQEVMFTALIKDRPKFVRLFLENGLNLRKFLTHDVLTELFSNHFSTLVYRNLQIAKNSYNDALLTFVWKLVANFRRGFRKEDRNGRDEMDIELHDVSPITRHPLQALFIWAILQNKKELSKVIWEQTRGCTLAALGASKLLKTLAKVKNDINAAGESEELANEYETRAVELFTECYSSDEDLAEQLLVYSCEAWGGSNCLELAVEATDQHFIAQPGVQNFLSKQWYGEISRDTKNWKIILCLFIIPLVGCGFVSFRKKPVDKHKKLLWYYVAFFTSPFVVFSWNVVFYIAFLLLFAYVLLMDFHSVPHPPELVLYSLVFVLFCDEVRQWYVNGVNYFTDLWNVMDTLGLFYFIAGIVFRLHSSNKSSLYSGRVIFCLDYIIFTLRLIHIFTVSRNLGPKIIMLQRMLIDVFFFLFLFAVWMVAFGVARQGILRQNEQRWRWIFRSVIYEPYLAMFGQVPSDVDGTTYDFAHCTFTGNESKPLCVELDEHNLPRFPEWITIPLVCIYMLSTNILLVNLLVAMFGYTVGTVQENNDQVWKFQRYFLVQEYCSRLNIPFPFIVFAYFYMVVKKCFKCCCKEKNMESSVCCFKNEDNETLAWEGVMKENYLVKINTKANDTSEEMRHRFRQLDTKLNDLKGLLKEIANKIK
Put plainly: Assay on TRPM8 modulators: Ca2+ signal (Fluo-4) in HEK293 cells stably transfected with human TRPM8.
Conditions: not given
More on the design: Relative TRPM8 activation (%): concentration or dose not given beside the values. The format is cell-based. An excerpt: The starting point for cloning the human TRPM8 receptor is an LnCaP cDNA bank. This is commercially available (e.g. BioChain, Hayward, USA) or can be produced from the androgene-sensitive human prostate adenocarcinoma cell line LnCaP (e.g. ATCC, CRL1740 or ECACC, 891 1021 1) using standard kits.
The coding TRPM8 sequence (see e.g. http://www. ncbi.nlm.nih.gov/entrez/viewer.fcgi?db=nuccore&id=109689694) can be PCR amplified and cloned using standard methods. The human TRPM8 gene isolated in this way was used to produce the plasmid plnd_M8. Alternatively, the TRPM8 gene can also be produced synthetically.
As a test cell system, a stably transfected HEK293 cell line was produced with human TRPM8 DNA. Preference is given to HEK293, which offers the possibility of inducing TRPM8 expression with tetracycline via the introduced plasmid.
A test similar to the one already described in the literature by Behrendt H. J. et al., Br. J. Pharmacol. 141, 2004, 737-745, is performed. The agonisation or antagonisation of the receptor can be quantified by means of a Cab-sensitive dye (e.g. FURA, Fluo-4 etc.). Agonists alone cause an increase in the Ca^2+ signal; antagonists cause a reduction in the Ca^2+ signal in the presence of e.g. menthol (in each case detected via the dye Fluo-4, which has different fluorescence properties due to Ca^2+ ions).
First, a fresh culture of transformed HEK cells is prepared in cell culture flasks in a manner known per se. The HEK293-TRPM8 test cells are detached from the cell culture flasks using trypsin and 40,000 cells/well are seeded with 100 μl medium in 96-hole plates (Greiner #655948 poly-D-lysine-coated). Tetracycline is added to the growth medium to induce receptor TRPM8 (DMEM/HG, 10% FCS tetracycline-free, 4 mM L-glutamine, 15 μg/ml blasticidin, 100 μg/ml hygromycin B, 1 μg/ml tetracycline).
The following day, the cells are loaded with Fluo-4AM dye and the test is performed. The procedure is as follows: Addition of 100 μl/well staining solution Ca-4 Kit (RB 141, Molecular Devices) to each 100 μl medium (DMEM/HG, 10% FCS tetracycline-free, 4 mM L-glutamine, 15 μg/ml blasticidin, 100 μg/ml hygromycin B, 1 μg/ml tetracycline).
Incubation in incubator, 30 minutes/37° C./5% CO2, 30 minutes/RT.
Preparation of the test substances (different concentrations in 200 μl HBSS buffer), as well as positive controls (different concentrations of menthol, icilin or lonomycin in 200 μl HBSS buffer) and negative controls (only 200 μl HBSS buffer) addition of the test substances in amounts of 50 μl/well and measurement of the fluorescence change (e.g. in the assay device FLIPR, Molecular Devices or NovoStar, BMG) at 485 nm excitation, 520 nm emission, and evaluation of the potency of the different substances/concentrations and determination of the EC50 values.
The test substances are used in triplicates in concentrations of 0.1-200 μM in the assay. Normally, the compounds are kept ready in DMSO solutions and diluted down to a maximum DMSO concentration of 2% for the assay.
With the aid of the assay described, the activity of the active substances is determined in relation to activation of the TRPM8 channel. This is done in a concentration-dependent manner. As a standard, 6 to 10 concentrations are measured for each active substance. From the determined activity values, the EC50 value can be determined as the inflection point of the sigmoidal curve using a mathematical method (4-parameter or 5-parameter logistic curve fitting). These are standard methods of biochemistry that are quite familiar to the skilled person.
`Cc1ccc(N2CCC(C(=O)NCc3cccc4c3OCO4)CC2)nc1` [Compound 5 a]: the “Relative TRPM8 activation (%)” value came out at 2.4%.
Same read-out and setting: next, `CCCC1CCN(c2cc(CNCc3cccc4c3OCO4)ccn2)CC1` [Compound 18 a]: −0.8%; `CCN(Cc1ccnc(N2CCC(C)CC2)c1)Cc1cccc2c1OCO2` [Compound 19 a]: 3.4%; `c1cc(CNCc2ccnc(-n3cccc3)c2)c2c(c1)OCO2` [Compound 22 a]: 3%.
On to `c1ccc(-c2cccc(CNCc3cccc4c3OCO4)c2)nc1` [Compound 22 c], for which the “Relative TRPM8 activation (%)” value is on record as 3.6%.
Same read-out and setting: then `c1ccc(-c2cc(CNCc3cccc4c3OCO4)co2)cc1` [Compound 31 a], with 0%; and `c1cc(CNCc2cc3ccccc3o2)c2c(c1)OCO2` [Compound 32 a], with 1.3%.
Same read-out and setting: then `c1ccc(-c2cc(CNCc3cccc4c3OCO4)cs2)cc1` [Compound 43 a], with 0%; and `O=C(NCc1cccc2c1OCO2)c1ccnc(N2CCCCC2)c1` [Compound 51 a], with 0%.

The same test, now with this note: HEK293-TRPM8 cells, Fluo-4; read-out: Activity in vitro assay (EC50).
Take `COc1ccc(CNCc2ccnc(N3CCCCC3)c2)cc1` [Compound 87]: the EC50 (in general, the concentration giving half of the maximal effect) is 0.00695 µM.
The same measure, in the same setting: next, `c1cc(CNCc2ccnc(N3CCCCC3)c2)c2c(c1)OCO2` [Example 1]: 0.115 µM; `c1cc(CNCc2ccnc(N3CCOCC3)c2)c2c(c1)OCO2` [Example 2]: 13 µM; `CC(NCc1cccc2c1OCO2)c1ccnc(N2CCCCC2)c1` (centres unmarked) [Example 8]: 0.15 µM.
On the same count and under the same terms, next, `CC(C)C(NCc1cccc2c1OCO2)c1ccnc(N2CCCCC2)c1` (centres unmarked) [Example 11]: 8.35 µM; `CC1CCN(c2cc(CNCc3cccc4c3OCO4)ccn2)CC1` [Example 12]: 2.01 µM; `CC1CCCN(c2cc(CNCc3cccc4c3OCO4)ccn2)C1` (centres unmarked) [Example 13]: 0.6 µM.
With `CC1CCCCN1c1cc(CNCc2cccc3c2OCO3)ccn1` (centres unmarked) [Example 14], the EC50 was determined as 0.33 µM.
Same read-out and setting: next, `CC1(C)CCN(c2cc(CNCc3cccc4c3OCO4)ccn2)CC1` [Example 15]: 2.63 µM.
Same read-out and setting: next, `CC1CC(C)CN(c2cc(CNCc3cccc4c3OCO4)ccn2)C1` (centres unmarked) [Example 16]: 2.53 µM; `CC1(C)CCCN(c2cc(CNCc3cccc4c3OCO4)ccn2)C1` [Example 17]: 0.72 µM.
Same read-out and setting: next, `CCC1CCCN(c2cc(CNCc3cccc4c3OCO4)ccn2)C1` (centres unmarked) [Example 18]: 2.01 µM.
On to `c1cc(CNCc2ccnc(N3CCSCC3)c2)c2c(c1)OCO2` [Example 22], for which the EC50 is 1.19 µM.
Take `COc1cccc(CNCc2ccnc(N3CCCCC3)c2)c1OC` [Example 23]: the EC50 came to 0.76 µM.
On the same count and under the same terms, then `CCOc1cccc(CNCc2ccnc(N3CCCCC3)c2)c1OC` [Example 24], with 1.11 µM; and `CCOc1cccc(CNCc2ccnc(N3CCCCC3)c2)c1OCC` [Example 25], with 5.86 µM; and `COc1ccc(CNCc2ccnc(N3CCCCC3)c2)cc1` [Example 27], with 0.1 µM and ≤ 1 µM.
Regarding `CSc1cc(CNCc2cccc3c2OCO3)ccn1` [Example 29], the EC50 is 6.5 µM.
On the same count and under the same terms, then `c1cc(CCNCCc2ccnc(N3CCCCC3)c2)c2c(c1)OCO2` [Example 34], with 0.8 µM; and `c1ccc(CNCc2ccnc(N3CCCCC3)c2)cc1` [Example 39], with 0.06 µM.
Same read-out and setting: then `Cc1ccc(CNCc2ccnc(N3CCCCC3)c2)cc1` [Example 41], with 0.15 µM; and `COc1cccc(CNCc2ccnc(N3CCCCC3)c2)c1` [Example 49], with 0.6 µM; and `COc1ccc(CNCc2ccnc(N3CCSCC3)c2)cc1` [Example 58], with 15.8 µM.
Still for that read-out and setting: next, `COc1ccc(CNCc2cccc(N3CCCC3)c2)cc1` [Example 64]: 1.77 µM.
`CCNC(=O)[C@@H]1C[C@H](C)CC[C@H]1C(C)C` [WS-3, L-menthanecarboxylic acid-N-ethylamide, reference compound]: the EC50 is 1.72 µM.

The next test concerns oral cavity. Put plainly: Sensory tasting of cooling intensity by trained panellists. The format is in vivo, human. Conditions: 5 ppm in 5% sugar solution, tasted 40 seconds, rated after one minute, scale 1 (very weak) to 9 (very strong). The procedure: In order to quantify the cooling effect, comparative tests are carried out using menthan-3-carboxylic acid-N-ethylamide as a reference. For these comparative tests, the skilled person replaces the compound or compounds to be used according to the invention with menthan-3-carboxylic acid-N-ethylamide (also referred to as WS-3). Then the intensities of the cooling effects of the respective compounds or active substances are sensory evaluated by trained panellists (n=10 to 11) as described below and compared with each other.
The investigation of the cooling intensity was carried out as follows: Test solutions containing 5 ppm of the compounds of the invention were each tasted in a 5% sugar solution as well as a corresponding solution containing 30 ppm of the reference substance WS-3. […] The corresponding test solutions were tasted by the panellists for a time of exactly 40 seconds, rinsing the entire oral cavity with the corresponding test solution and then spitting out the sample or reference solution. Following the tasting, the test persons rated the respective cooling intensity after one minute according to a scale from 1 (very weak) to 9 (very strong).
For `COc1ccc(C(C)NCc2ccnc(N3CCCCC3)c2)cc1` (centres unmarked) [Compound 85], the Cooling intensity was found to be 2.1.
